Test results as given in ChEMBL document CHEMBL1681651, “A broad spectrum anticancer nucleoside with selective toxicity against human colon cells in vitro” (2011).

Assays:
Type in all cases: functional
M14 = assay: Growth inhibition of human M14 cells assessed as cell growth at 1 mM after 48 hrs by SRB assay; details: M14, 48 h, read-out: Activity
HT-29 = assay: Growth inhibition of human HT-29 cells assessed as cell growth at 100 uM after 48 hrs by SRB assay; details: HT-29, 48 h, read-out: Activity
OVCAR-4 = assay: Growth inhibition of human OVCAR4 cells assessed as cell growth at 0.1 uM after 48 hrs by SRB assay; details: OVCAR-4, 48 h, read-out: Activity
KM12 = assay: Growth inhibition of human KM12 cells assessed as cell growth at 1 mM after 48 hrs by SRB assay; details: KM12, 48 h, read-out: Activity
A549 [1] = assay: Growth inhibition of human A549 cells assessed as cell growth at 1 mM after 48 hrs by SRB assay; details: A549, 48 h, read-out: Activity
MCF7 [2] = assay: Growth inhibition of human MCF7 cells assessed as cell growth at 0.1 uM after 48 hrs by SRB assay; details: MCF7, 48 h, read-out: Activity
SNB-19 = assay: Growth inhibition of human SNB19 cells assessed as cell growth at 100 uM after 48 hrs by SRB assay; details: SNB-19, 48 h, read-out: Activity
A549 [3] = assay: Growth inhibition of human A549 cells assessed as cell growth at 100 uM after 48 hrs by SRB assay; details: A549, 48 h, read-out: Activity
UO-31 [4] = assay: Growth inhibition of human UO31 cells assessed as cell growth at 0.1 uM after 48 hrs by SRB assay; details: UO-31, 48 h, read-out: Activity
A498 [5] = assay: Growth inhibition of human A498 cells assessed as cell growth at 1 mM after 48 hrs by SRB assay; details: A498, 48 h, read-out: Activity
Malme-3M [6] = assay: Growth inhibition of human MALME-3M cells assessed as cell growth at 0.1 uM after 48 hrs by SRB assay; details: read-out: Activity
NCI-H226 = assay: Growth inhibition of human NCI-H226 cells assessed as cell growth at 100 uM after 48 hrs by SRB assay; details: NCI-H226, 48 h, read-out: Activity
LOX IMVI = assay: Growth inhibition of human LOXIMVI cells assessed as cell growth at 10 uM after 48 hrs by SRB assay; details: read-out: Activity
SK-MEL-5 = assay: Growth inhibition of human SK-MEL-5 cells after 48 hrs by […] growth inhibition assay; details: SK-MEL-5, 48 h
NCI-H460 = assay: Growth inhibition of human NCI-H460 cells assessed as cell growth at 1 uM after 48 hrs by SRB assay; details: NCI-H460, 48 h, read-out: Activity
SN12C [7] = assay: Growth inhibition of human SN12C cells after 48 hrs by […] growth inhibition assay
TK-10 = assay: Growth inhibition of human TK10 cells assessed as cell growth at 1 mM after 48 hrs by SRB assay; details: TK-10, 48 h, read-out: Activity
A498 [8] = assay: Growth inhibition of human A498 cells assessed as cell growth at 10 uM after 48 hrs by SRB assay; details: A498, 48 h, read-out: Activity
MCF7 [9] = assay: Growth inhibition of human MCF7 cells assessed as cell growth at 100 uM after 48 hrs by SRB assay; details: MCF7, 48 h, read-out: Activity
Malme-3M [10] = assay: Growth inhibition of human MALME-3M cells assessed as cell growth at 1 mM after 48 hrs by SRB assay; details: read-out: Activity
HCT-15 = assay: Growth inhibition of human HCT15 cells assessed as cell growth at 1 uM after 48 hrs by SRB assay; details: HCT-15, 48 h, read-out: Activity
OVCAR-3 = assay: Growth inhibition of human OVCAR3 cells assessed as cell growth at 10 uM after 48 hrs by SRB assay; details: OVCAR-3, 48 h, read-out: Activity
COLO 205 = assay: Growth inhibition of human COLO205 cells assessed as cell growth at 10 uM after 48 hrs by SRB assay; details: COLO 205, 48 h, read-out: Activity
CCRF-CEM [11] = assay: Growth inhibition of human CCRF-CEM cells assessed as cell growth at 100 uM after 48 hrs by SRB assay; details: read-out: Activity
BT-549 = assay: Growth inhibition of human BT549 cells assessed as cell growth at 1 uM after 48 hrs by SRB assay; details: BT-549, 48 h, read-out: Activity
SF-268 = assay: Growth inhibition of human SF268 cells assessed as cell growth at 1 uM after 48 hrs by SRB assay; details: SF-268, 48 h, read-out: Activity
UO-31 [12] = assay: Growth inhibition of human UO31 cells assessed as cell growth at 1 uM after 48 hrs by SRB assay; details: UO-31, 48 h, read-out: Activity
NCI/ADR-RES = assay: Growth inhibition of human NCI/ADR-RES cells assessed as cell growth at 1 uM after 48 hrs by SRB assay; details: read-out: Activity
SK-MEL-2 = assay: Growth inhibition of human SK-MEL-2 cells assessed as cell growth at 100 uM after 48 hrs by SRB assay; details: SK-MEL-2, 48 h, read-out: Activity
HCC 2998 = assay: Growth inhibition of human HCC2998 cells assessed as cell growth at 0.1 uM after 48 hrs by SRB assay; details: HCC 2998, 48 h, read-out: Activity
CCRF-CEM [13] = assay: Growth inhibition of human CCRF-CEM cells assessed as cell growth at 1 uM after 48 hrs by SRB assay; details: read-out: Activity
NCI-H522 = assay: Growth inhibition of human NCI-H522 cells assessed as cell growth at 0.1 uM after 48 hrs by SRB assay; details: NCI-H522, 48 h, read-out: Activity
MCF7 [14] = assay: Growth inhibition of human MCF7 cells assessed as cell growth at 10 uM after 48 hrs by SRB assay; details: MCF7, 48 h, read-out: Activity
MDA-MB-435 = assay: Growth inhibition of human MDA-MB-435 cells after 48 hrs by SRB assay; details: MDA-MB-435, 48 h
NCI-H322M = assay: Growth inhibition of human NCI-H322M cells assessed as cell growth at 100 uM after 48 hrs by SRB assay; details: read-out: Activity
SN12C [15] = assay: Growth inhibition of human SN12C cells assessed as cell growth at 100 uM after 48 hrs by SRB assay; details: read-out: Activity
786-0 = assay: Growth inhibition of human 786-0 cells assessed as cell growth at 1 mM after 48 hrs by SRB assay; details: 786-0, 48 h, read-out: Activity
[16] = read-out: LC50 (the source's name)
[17] = read-out: pLC50 (the source's name) (converted)

CNC(=O)NC[C@H]1O[C@@H](n2cnc3c(NC(=O)Nc4ccccc4)ncnc32)[C@H](O[Si](C)(C)C(C)(C)C)[C@@H]1CC(=O)N(C)OC
growth at 1000 µM (M14): 18% | growth at 100 µM (HT-29): 32% | growth at 0.1 µM (OVCAR-4): 100% | growth at 1000 µM (KM12): 30% | growth at 1000 µM (A549 [1]): 27% | growth at 0.1 µM (MCF7 [2]): 91% | growth at 100 µM (SNB-19): 61% | growth at 100 µM (A549 [3]): 49% | growth at 0.1 µM (UO-31 [4]): 89% | growth at 1000 µM (A498 [5]): -16% | growth at 0.1 µM (Malme-3M [6]): 103% | growth at 100 µM (NCI-H226): 66% | growth at 10 µM (LOX IMVI): 94% | GI50 (SK-MEL-5; read-out: GI50): 5.81 µM | CC50 (SK-MEL-5; [16]): > 100 µM | TGI (SK-MEL-5; read-out: TGI): > 100 µM | GI50 (SK-MEL-5; read-out: pGI50 (converted)): 5.75 µM | CC50 (SK-MEL-5; [17]): > 100 µM | TGI (SK-MEL-5; read-out: pTGI (converted)): > 100 µM | growth at 1 µM (NCI-H460): 93% | GI50 (SN12C [7]; read-out: GI50): 85.3 µM | CC50 (SN12C [7]; [16]): > 100 µM | TGI (SN12C [7]; read-out: TGI): > 100 µM | GI50 (SN12C [7]; read-out: pGI50 (converted)): 85.1 µM | CC50 (SN12C [7]; [17]): > 100 µM | TGI (SN12C [7]; read-out: pTGI (converted)): > 100 µM | growth at 1000 µM (TK-10): 17% | growth at 10 µM (A498 [8]): 87% | growth at 100 µM (MCF7 [9]): 34% | growth at 1000 µM (Malme-3M [10]): 23% | growth at 1 µM (HCT-15): 94% | growth at 10 µM (OVCAR-3): 100% | growth at 10 µM (COLO 205): 90% | growth at 100 µM (CCRF-CEM [11]): 39% | growth at 1 µM (BT-549): 98% | growth at 1 µM (SF-268): 105% | growth at 1 µM (UO-31 [12]): 89% | growth at 1 µM (NCI/ADR-RES): 109% | growth at 100 µM (SK-MEL-2): 62% | growth at 0.1 µM (HCC 2998): 102% | growth at 1 µM (CCRF-CEM [13]): 100% | growth at 0.1 µM (NCI-H522): 90% | growth at 10 µM (MCF7 [14]): 96% | GI50 (MDA-MB-435; read-out: GI50): 10.9 µM | LC50 (MDA-MB-435; read-out: LC50): > 100 µM | TGI (MDA-MB-435; read-out: TGI): > 100 µM | GI50 (MDA-MB-435; read-out: pGI50 (converted)): 11 µM | LC50 (MDA-MB-435; read-out: pLC50 (converted)): > 100 µM | TGI (MDA-MB-435; read-out: pTGI (converted)): > 100 µM | growth at 100 µM (NCI-H322M): 90% | growth at 100 µM (SN12C [15]): 66% | growth at 1000 µM (786-0): 8%

CCOC(=O)C[C@H]1[C@@H](O[Si](C)(C)C(C)(C)C)[C@H](n2cnc3c(NC(=O)Nc4ccccc4)ncnc32)O[C@@H]1CNC(=O)NC
growth at 1000 µM (M14): -56% | growth at 100 µM (HT-29): 17% | growth at 0.1 µM (OVCAR-4): 98% | growth at 1000 µM (KM12): -28% | growth at 1000 µM (A549 [1]): -58% | growth at 0.1 µM (MCF7 [2]): 96% | growth at 100 µM (SNB-19): 82% | growth at 100 µM (A549 [3]): 23% | growth at 0.1 µM (UO-31 [4]): 87% | growth at 1000 µM (A498 [5]): -41% | growth at 0.1 µM (Malme-3M [6]): 104% | growth at 100 µM (NCI-H226): 71% | growth at 10 µM (LOX IMVI): 93% | GI50 (SK-MEL-5; read-out: GI50): 4.34 µM | CC50 (SK-MEL-5; [16]): > 100 µM | TGI (SK-MEL-5; read-out: TGI): > 100 µM | GI50 (SK-MEL-5; read-out: pGI50 (converted)): 4.37 µM | CC50 (SK-MEL-5; [17]): > 100 µM | TGI (SK-MEL-5; read-out: pTGI (converted)): > 100 µM | growth at 1 µM (NCI-H460): 102% | GI50 (SN12C [7]; read-out: GI50): 9.1 µM | CC50 (SN12C [7]; [16]): > 100 µM | TGI (SN12C [7]; read-out: TGI): > 100 µM | GI50 (SN12C [7]; read-out: pGI50 (converted)): 9.12 µM | CC50 (SN12C [7]; [17]): > 100 µM | TGI (SN12C [7]; read-out: pTGI (converted)): > 100 µM | growth at 1000 µM (TK-10): -38% | growth at 10 µM (A498 [8]): 91% | growth at 100 µM (MCF7 [9]): 16% | growth at 1000 µM (Malme-3M [10]): 17% | growth at 1 µM (HCT-15): 96% | growth at 10 µM (OVCAR-3): 116% | growth at 10 µM (COLO 205): 93% | growth at 100 µM (CCRF-CEM [11]): 41% | growth at 1 µM (BT-549): 109% | growth at 1 µM (SF-268): 103% | growth at 1 µM (UO-31 [12]): 87% | growth at 1 µM (NCI/ADR-RES): 107% | growth at 100 µM (SK-MEL-2): 32% | growth at 0.1 µM (HCC 2998): 101% | growth at 1 µM (CCRF-CEM [13]): 100% | growth at 0.1 µM (NCI-H522): 89% | growth at 10 µM (MCF7 [14]): 89% | GI50 (MDA-MB-435; read-out: GI50): 6.21 µM | LC50 (MDA-MB-435; read-out: LC50): > 100 µM | TGI (MDA-MB-435; read-out: TGI): > 100 µM | GI50 (MDA-MB-435; read-out: pGI50 (converted)): 6.17 µM | LC50 (MDA-MB-435; read-out: pLC50 (converted)): > 100 µM | TGI (MDA-MB-435; read-out: pTGI (converted)): > 100 µM | growth at 100 µM (NCI-H322M): 89% | growth at 100 µM (SN12C [15]): 48% | growth at 1000 µM (786-0): -97%
